# Target: T1, α-amylase
# T1 construct: gene AMY2; porcine pancreas is only a guess from usual DNSA assay practice
# Assay: DNSA alpha-amylase inhibition assay, nonlinear regression
# Assay type: biochemical
# Details: enzyme source, substrate, pH and temperature not stated; triplicate
structure (smiles),measurement,value
"CC(=O)C1=C(O)C=C2NC(=O)NC3=CC(O)=C(C(C)=O)C1(c1ccccc1)C23 (stereo not shown) [compound 1, 1,1′-(5,8-Dihydroxy-2-oxo-6a-phenyl-2,3,3a1,6a-tetrahydro-1H-perimidine-6,7-diyl)bis(ethan-1-one)]",IC50,34.60 ± 1.43 µg/mL

# Reference: publication PMC12376908, “Synthesis and radiolabelled evaluation of novel pyrimidine derivatives as dual α-amylase inhibitors and GIT-targeted molecular imaging probe” (RSC Advances, 2025)
